Data: patent US20220089541A1, “Compounds for the Treatment of Kinase-Dependent Disorders” (Exelixis, Inc., priority 2019, published 2022)

What was measured:
[1] = Microsomal assay, rat liver microsome stability; settings: liver microsomes, pH 7.4
Protocol: (§1) Liver microsomes tissue fractions were used for in vitro assessment of metabolic stability of compounds by cytochrome P450 (CYP450) (for example, CYP3A4, CYP2C9) mediated phase I oxidation, and metabolism through other pathways. Human, mouse, rat, and dog liver microsomes tissue fractions were obtained from Corning Gentest and BioreclamationIVT.
(§2) The assay was carried out in 96-well microtiter plates. Compounds were incubated (N=l) at 37° C. in the presence of liver microsomes. Reaction mixtures (25 μL) contained a final concentration of 1 μM test compound, 0.5 mg/mL liver microsomes (LM) protein, and 1 mM NADPH in 100 mM potassium phosphate, pH 7.4 buffer with 3.3 mM MgCl2. The extent of metabolism was calculated as the disappearance of the test compound, compared to the 0-min control reaction incubations. Verapamil was included as a positive control to verily assay performance.
(§3) At each of the four time points, 150 μL of quench solution (100% acetonitrile with 0.1% formic acid) with internal standard (bucetin for positive ESI mode) was transferred to each well. Plates were sealed and centrifuged at 10° C. for 15 minutes at 4000 rpm. The supernatant was transferred to fresh plates for LC/MS/MS analysis.
(§4) All samples were analyzed on LC/MS/MS using an AB Sciex API 4000 instrument, coupled to a Shimadzu LC-20AD LC Pump system. Analytical samples were separated using a Waters Atlantis T3 dC18 reverse phase HPLC column (20 mm×2.1 mm) at a flow rate of 0.5 mL/min. The mobile phase consisted of 0.1% formic acid in water (solvent A) and 0.1% formic acid in 100% acetonitrile (solvent B).

[2] = Microsomal assay, mouse liver microsome stability; settings: liver microsomes, pH 7.4
Protocol: as §1, §2, §3, §4

Mer = target: T1, Mer (Homo sapiens, UniProt Q12866); experiment: Mer autophosphorylation ELISA in transient transfected 293A cells; type: cell-based; settings: 293A cells transfected with MERTK DNA, phospho-Mer ELISA, 1 h compound incubation
T1 construct: host or cells: 293A cells (Thermo Fisher #R70507)
T1 sequence (Q12866 21-999): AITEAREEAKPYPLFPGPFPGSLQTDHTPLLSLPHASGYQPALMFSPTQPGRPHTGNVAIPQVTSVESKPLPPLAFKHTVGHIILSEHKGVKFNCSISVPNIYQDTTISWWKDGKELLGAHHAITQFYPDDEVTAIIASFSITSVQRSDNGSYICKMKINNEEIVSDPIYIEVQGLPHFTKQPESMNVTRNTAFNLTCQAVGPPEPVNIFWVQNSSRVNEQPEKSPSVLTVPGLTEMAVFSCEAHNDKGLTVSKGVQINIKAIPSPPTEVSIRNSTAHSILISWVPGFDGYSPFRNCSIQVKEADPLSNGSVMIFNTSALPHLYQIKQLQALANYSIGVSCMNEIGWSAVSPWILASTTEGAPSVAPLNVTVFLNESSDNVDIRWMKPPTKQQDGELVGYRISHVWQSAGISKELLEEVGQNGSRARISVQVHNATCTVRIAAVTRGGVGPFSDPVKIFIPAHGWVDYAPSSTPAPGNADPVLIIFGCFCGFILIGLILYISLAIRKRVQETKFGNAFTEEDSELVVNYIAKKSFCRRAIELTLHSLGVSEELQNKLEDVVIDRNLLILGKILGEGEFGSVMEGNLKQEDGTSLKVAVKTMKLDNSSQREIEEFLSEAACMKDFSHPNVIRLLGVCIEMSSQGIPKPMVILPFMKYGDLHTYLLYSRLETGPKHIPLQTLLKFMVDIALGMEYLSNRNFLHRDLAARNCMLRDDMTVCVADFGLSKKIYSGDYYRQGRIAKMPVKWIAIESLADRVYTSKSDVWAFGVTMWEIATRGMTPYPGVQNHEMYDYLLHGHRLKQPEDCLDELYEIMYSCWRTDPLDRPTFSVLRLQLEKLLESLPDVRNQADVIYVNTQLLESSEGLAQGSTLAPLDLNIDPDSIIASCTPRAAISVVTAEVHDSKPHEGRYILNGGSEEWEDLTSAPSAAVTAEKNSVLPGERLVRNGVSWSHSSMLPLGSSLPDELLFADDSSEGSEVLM
Protocol: Example D: Mer Autophosphorylation ELISA in Transient Transfected 293A Cells
293A cells (Thermo Fisher #R70507) were seeded at 1.5×10^6 cells/well onto 100 mm dish (Greiner #664169), in DMEM (Thermo Fisher #11995-040) containing 10% FBS (Thermo Fisher #26140-079), 1% MEM NEAA (Thermo Fisher #11140-050), 1% GlutaMax (Thermo Fisher #35050-061), and 1% Penicillin Streptomycin (Thermo Fisher #15140-122). 293A cells were incubated at 37° C., 5% CO2 for 24 h and then transfected with 6 μg MERTK DNA (Genecopoeia #EX-Z8208-M02) using TransIT LT1 transfection reagent (Mirus-Bio #MIR2305). After 24 h incubation, the transfected 293A cells were seeded at 1×10^5 cells/well onto 96-well plates (Corning #3904) in DMEM growth medium overnight. Test compounds were serially diluted to produce an 8-point dose curve in fresh serum-free medium to a final concentration of 0.3% DMSO (vehicle) and added to the cells and incubated for 1 h. Cells were then immediately lysed with 150 μL of cold IX lysis buffer [20 mM Tris, 137 mM sodium chloride, 2 mM EDTA, 10% glycerol, l % NP-40 alternative, 1 mM activated sodium orthovanadate, 1 mM PefaBloc SC (Sigma-Aldrich #11429868001), protease/phosphatase inhibitor tablet (Thermo Fisher #A32959)]. Lysates were clarified by centrifugation and 50 μL/well added into the human phospho-Mer DuoSet IC ELISA (R&D Systems #DYC2579-2). Assay was performed according to manufacturer's instructions and sample phospho-Mer concentrations were extrapolated using human phospho-Mer control (R&D Systems #841793) as a standard. Positive control wells (100% activity) contained DMSO-treated cell lysates. Negative control wells (0% activity) contained reference inhibitor-treated cell lysates. IC50 values were calculated by nonlinear regression analysis using a 4-parameter logistic curve fit in ActivityBase XE (IDBS).

Met = target: T2, Met (Homo sapiens, UniProt P08581); experiment: Met autophosphorylation ELISA in PC-3 cells; type: cell-based; settings: PC-3 prostate cancer cells, HGF-stimulated, phospho-Met ELISA, 1 h compound incubation; read-out: c-Met IC50
T2 construct: host or cells: PC-3 prostate cancer cells
Protocol: Example B: Met Autophosphorylation ELISA in PC-3 Cells
PC-3 prostate cancer cells (ATCC #CRL-1435) were seeded at 4×10^4 cells/well onto 24-well plates (Greiner #662165), in DMEM (Thermo Fisher #11995-040) containing 10% FBS (Thermo Fisher #26140-079), 1% MEM NEAA (Thermo Fisher #11140-050), 1% GlutaMax (Thermo Fisher #35050-061), and 1% Penicillin Streptomycin (Thermo Fisher #15140-122). PC-3 cells were incubated at 37° C., 5% CO2 for 24 h and then starved for 3 h in serum-free medium. Test compounds were serially diluted to produce an 8-point dose curve in fresh serum-free medium to a final concentration of 0.3% DMSO (vehicle) and added to the cells and incubated for 1 h. Cells were then stimulated with 100 ng/mL recombinant human HGF (R&D Systems #294-HG-250) for 10 min, washed with cold PBS, and immediately lysed with 130 μL of cold IX lysis buffer [20 mM Tris, 137 mM sodium chloride, 2 mM EDTA, 10% glycerol, 1% NP-40 alternative, 1 mM activated sodium orthovanadate, 1 mM PefaBloc SC (Sigma-Aldrich #11429868001), protease/phosphatase inhibitor tablet (Thermo Fisher #A32959)]. Lysates were clarified by centrifugation and 100 μL/well added into the PathScan phospho-Met (panTyr) Sandwich ELISA (Cell Signaling Technology #7333). Assay was performed according to manufacturer's instructions. Positive control wells (100% activity) contained HGF-stimulated, DMSO-treated cell lysates. Negative control wells (0% activity) contained HGF-stimulated, reference inhibitor-treated cell lysates. IC50 values were calculated by nonlinear regression analysis using a 4-parameter logistic curve fit in ActivityBase XE (IDBS).

T2 sequence (P08581 25-1390): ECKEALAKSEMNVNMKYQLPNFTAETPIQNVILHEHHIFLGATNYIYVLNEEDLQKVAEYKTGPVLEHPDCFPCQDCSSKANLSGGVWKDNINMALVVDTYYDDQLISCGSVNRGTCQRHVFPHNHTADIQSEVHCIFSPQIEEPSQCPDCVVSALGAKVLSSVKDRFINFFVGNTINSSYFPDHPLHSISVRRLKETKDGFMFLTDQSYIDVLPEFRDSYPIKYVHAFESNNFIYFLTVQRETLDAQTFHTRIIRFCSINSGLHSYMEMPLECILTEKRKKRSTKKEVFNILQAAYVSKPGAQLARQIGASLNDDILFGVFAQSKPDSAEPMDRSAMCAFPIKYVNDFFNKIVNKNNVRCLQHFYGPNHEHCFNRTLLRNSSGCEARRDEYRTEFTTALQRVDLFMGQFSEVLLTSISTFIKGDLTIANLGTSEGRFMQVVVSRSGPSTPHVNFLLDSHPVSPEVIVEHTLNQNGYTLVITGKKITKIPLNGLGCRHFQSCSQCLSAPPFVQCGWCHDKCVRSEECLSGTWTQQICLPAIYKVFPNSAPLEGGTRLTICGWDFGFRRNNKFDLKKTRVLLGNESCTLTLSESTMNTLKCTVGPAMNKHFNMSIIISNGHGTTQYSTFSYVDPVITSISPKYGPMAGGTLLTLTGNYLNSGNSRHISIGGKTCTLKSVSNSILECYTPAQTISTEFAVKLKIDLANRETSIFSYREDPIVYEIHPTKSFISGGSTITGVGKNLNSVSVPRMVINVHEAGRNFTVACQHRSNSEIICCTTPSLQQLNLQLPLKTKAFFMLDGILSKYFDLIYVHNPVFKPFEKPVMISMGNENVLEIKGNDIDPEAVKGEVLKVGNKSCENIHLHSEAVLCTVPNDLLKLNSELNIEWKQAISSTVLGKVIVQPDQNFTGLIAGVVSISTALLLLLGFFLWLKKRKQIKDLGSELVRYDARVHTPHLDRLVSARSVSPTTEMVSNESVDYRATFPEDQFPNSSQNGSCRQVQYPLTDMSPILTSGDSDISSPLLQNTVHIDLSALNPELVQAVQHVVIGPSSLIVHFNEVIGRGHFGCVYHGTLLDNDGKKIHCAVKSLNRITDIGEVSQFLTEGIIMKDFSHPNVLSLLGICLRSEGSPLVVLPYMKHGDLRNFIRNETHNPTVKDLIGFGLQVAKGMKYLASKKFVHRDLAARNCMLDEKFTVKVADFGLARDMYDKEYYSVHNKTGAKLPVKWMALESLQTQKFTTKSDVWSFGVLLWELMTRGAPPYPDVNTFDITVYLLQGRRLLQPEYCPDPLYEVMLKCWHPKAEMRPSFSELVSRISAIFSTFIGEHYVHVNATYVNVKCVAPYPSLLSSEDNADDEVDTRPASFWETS

Row | half-life at 1 μM [1] | half-life at 1 μM [2] | IC50 (Mer) | IC50 (Met) | SMILES
1 | 1.3 min | 2.6 min | > 300 nM | > 300 nM | CNC(=O)c1cc2c(Oc3ncc(NC(=O)C4(C(=O)N(C)c5ccc(F)cc5)CC4)cc3F)ccnc2cc1OC [Compound 34, 1-N-[5-Fluoro-6-[7-methoxy-6-(methylcarbamoyl)quinolin-4-yl]oxypyridin-3-yl]-1-N′-(4-fluorophenyl)-1-N′-methylcyclopropane-1,1-dicarboxamide]
2 | 14.3 min | 9.6 min | > 300 nM | > 300 nM | COc1cc2nccc(Oc3ccc(N(C)C(=O)C4(C(=O)Nc5ccc(F)cc5)CC4)cc3F)c2cc1OC [Compound 51, 1-N′-[4-(6,7-Dimethoxyquinolin-4-yl)oxy-3-fluorophenyl]-1-N-(4-fluorophenyl)-1-N′-methylcyclopropane-1,1-dicarboxamide]
3 | 1.3 min | 4.1 min | > 300 nM | > 300 nM | COc1cc2nccc(Oc3ccc(NC(=O)C4(C(=O)N(C)c5ccc(F)cc5)CC4)cc3F)c2cc1OC [Compound 10, N-(4-((6,7-Dimethoxyquinolin-4-yl)oxy)-3-fluorophenyl)-N-(4-fluorophenyl)-N-methylcyclopropane-1,1-dicarboxamide]
4 | 1.4 min | 3.1 min | > 300 nM | > 300 nM | COc1cc2nccc(Oc3ccc(NC(=O)C4(C(=O)N(C)c5ccc(F)cc5)CC4)cc3)c2cc1OC [Compound 9, 1-N-[4-(6,7-Dimethoxyquinolin-4-yl)oxyphenyl]-1-N′-(4-fluorophenyl)-1-N′-methylcyclopropane-1,1-dicarboxamide]
5 | 1.2 min | 1.9 min | > 300 nM | > 300 nM | COc1cc2nccc(Oc3ncc(NC(=O)C4(C(=O)N(C)c5ccc(F)cc5)CC4)cc3F)c2cc1C(N)=O [Compound 35, 1-N-[6-(6-Carbamoyl-7-methoxyquinolin-4-yl)oxy-5-fluoropyridin-3-yl]-1-N′-(4-fluorophenyl)-1-N′-methylcyclopropane-1,1-dicarboxamide]
